Data from patent US7709516B2, “Helix 12 directed non-steroidal antiandrogens” (Endorecherche, Inc., priority 2005, dated 2010).
Like-named read-outs stand apart in the source and are kept apart here.

Assays:
[1] = test system: Shionogi mouse mammary carcinoma cells; assay: Androgenic/antiandrogenic activity: inhibition of DHT-stimulated Shionogi cell number; format: cell-based; conditions: DHT-stimulated Shionogi cell number; for IC50: Mus musculus
[2] = test system: rat prostate, seminal vesicle, levator ani muscle; assay: Systemic antiandrogenic activity in orchidectomized immature male rats with DHT implant; format: in vivo; conditions: rat +DHT, 0.5 mg/animal daily 7 days; for inhibition in vivo at 0.5 mg: Rattus norvegicus, 168 h, s.c. or p.o. (route not marked)
Human Androgen Receptor = biological target: T1, Human Androgen Receptor (Homo sapiens, UniProt P10275); assay: Androgen receptor binding assay ([3H]R1881, HAP) in cytosol of HEK-293 cells transfected with hAR; conditions: relative to R1881 = 100, transfected cells
T1 sequence (P10275 1-920): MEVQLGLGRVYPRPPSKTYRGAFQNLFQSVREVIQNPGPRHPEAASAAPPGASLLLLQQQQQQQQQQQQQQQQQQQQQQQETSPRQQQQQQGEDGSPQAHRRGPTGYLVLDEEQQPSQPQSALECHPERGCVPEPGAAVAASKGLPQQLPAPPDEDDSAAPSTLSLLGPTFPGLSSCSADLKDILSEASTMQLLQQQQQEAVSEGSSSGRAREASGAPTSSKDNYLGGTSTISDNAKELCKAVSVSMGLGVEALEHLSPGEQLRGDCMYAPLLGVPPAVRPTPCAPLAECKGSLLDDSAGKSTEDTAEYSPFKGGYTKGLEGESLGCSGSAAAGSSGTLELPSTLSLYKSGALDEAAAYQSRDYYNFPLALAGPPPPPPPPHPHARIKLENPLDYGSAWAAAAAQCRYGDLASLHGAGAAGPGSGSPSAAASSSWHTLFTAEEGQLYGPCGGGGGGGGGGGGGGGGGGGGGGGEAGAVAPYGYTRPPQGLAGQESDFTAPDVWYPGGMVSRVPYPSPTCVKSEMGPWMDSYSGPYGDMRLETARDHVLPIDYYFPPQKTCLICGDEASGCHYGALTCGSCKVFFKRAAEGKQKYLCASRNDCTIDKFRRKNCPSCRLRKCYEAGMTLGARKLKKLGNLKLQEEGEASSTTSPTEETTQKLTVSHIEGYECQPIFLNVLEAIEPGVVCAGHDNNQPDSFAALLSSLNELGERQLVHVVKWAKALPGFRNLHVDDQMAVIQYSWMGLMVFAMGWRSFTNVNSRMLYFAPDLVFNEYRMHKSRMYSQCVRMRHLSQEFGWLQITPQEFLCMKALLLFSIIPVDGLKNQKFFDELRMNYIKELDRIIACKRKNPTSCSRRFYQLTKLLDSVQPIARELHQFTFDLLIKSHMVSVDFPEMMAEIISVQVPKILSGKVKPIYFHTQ

[3] = test system: sebaceous glands of the left ear; assay: Topical antiandrogenic activity, ear sebaceous glands model in the male hamster; format: in vivo; conditions: 3 μg daily dose for 14 days
Experimental: Column 5 represents the percentage of inhibition of the area of the sebaceous glands of the left ear of the treated animals versus the area of the sebaceous glands of the left ear of the control animals. A 3 μg-daily dose for 14 days of tested compound dissolved in ten μL solution of ethanol: propylene Glycol (1:1; v: v) applied onto a region between the two cartilage ridges of the ventral surface of left pinna.
D—In vivo Assessment of Topical Antiandrogenic Activity
The antiandrogenic activity of compounds for topical use was determined using the ear sebaceous glands model in the male hamster.
Male Golden Syrian Hamsters (SYR) of 110-120 g were obtained from Harlan Sprague-Dawley (Madison, USA) and housed up to 2 per plastic cage in a temperature (22±3° C.) and light (12 h light/day, lights on at 7h15)-controlled environment. The hamsters were fed with Certified Rodent Diet 5002 (pellet) and had access to tap water ad libitum. […]
The total area of the sebaceous glands (μm^2) in each examined field was calculated by the Image Analyser. We also measured the total area, which has the length of 0.953 mm and the height between stratum granulosum and the cartilage. […] Thus, for each ear, two sections were cut and two fields from each section were analyzed. The total of the four readings was averaged and the mean standard error of the mean was calculated by the image analyzer. […]

[4] = test system: rat prostate, seminal vesicle, levator ani muscle; assay: Systemic androgenic activity in orchidectomized immature male rats; format: in vivo; conditions: po, 168 h, 0.2 mg/animal daily 7 days
Description: Column 7 represents the % of androgenic efficacy in rat prostate, expressed in percentage of stimulation:
W is the weight of the prostate.
Column 8 represents the % of androgenic efficacy in rat seminal vesicle, expressed in percentage of stimulation:
W is the weight of the seminal vesicle.
Column 9 represents the % of androgenic efficacy in rat levator ani muscle, expressed in percentage of stimulation: […]
Immature male rats (Crl:CD(SD)Br) 22 to 24-day old were obtained from Charles-River, Inc. (St-Constant, Quebec, Canada) and housed up to 5 per cage in plastic bins in a temperature (23±1° C.)— and light (12 h light/day, lights on at 7h15)— controlled environment. The rats were fed rodent chow and tap water ad libitum. The day following their arrival, the animals were orchidectomized (CX) under Isoflurane anesthesia via scrotal route and randomly assigned to groups of 5 animals.
To evaluate the antiandrogenic activity, tested compounds were administered subcutaneously or orally once daily at a dose of 0.5 mg/animal for antiandrogenitic activity or 0.2 mg/animal for androgenic activity for 7 days (SD 1 to 7). Compounds were solubilized (when possible) in dimethylsulfoxide (DMSO, 10% final concentration) and administered as suspension in 0.4% methylcellulose. […] One group of animals received the antiandrogen Flutamide as reference. The animals were killed by cervical dislocation under isoflurane anesthesia on the 8th morning following castration. The ventral prostate and seminal vesicles were rapidly dissected and weighed.
3. Calculations and Statistical Analysis
W is the weight of the prostate, the seminal vesicle or levator ani.

[5] = Table 3, p.o (marked in prostate cell)

CCC(c1ccc(OCCC2(O)CCN(c3ccc(C#N)c(C(F)(F)F)c3)CC2)cc1)N1CCCC1 (stereo not shown) [EM-7893, 4-(4-{2-[4-(1-propyl-pyrolidine)-phenoxy]-ethyl}-4-hydroxy-piperidin-1-yl)-2-trifluoromethyl-benzonitrile]
IC50 ([1]; read-out: Shionogi Antiandrogenic Activity IC50, Table 2): 5.1 nM | IC50 ([1]; read-out: Shionogi Antiandrogenic Activity IC50, Table 4): 5.1 nM | inhibition in vivo at 0.5 mg ([2]; read-out: Lev Ani % inhibition, Table 2, levator ani): 26% | inhibition in vivo at 0.5 mg ([2]; read-out: Prostate % inhibition, Table 2): 6% | inhibition in vivo at 0.5 mg ([2]; read-out: SV % inhibition, Table 2, seminal vesicle): 38% | Human Androgen Receptor Binding (%) RBA R1881 = 100 (Human Androgen Receptor; Table 2): 10.3% | Human Androgen Receptor Binding (%) RBA R1881 = 100 (Human Androgen Receptor; Table 4): 10.3% | Hamster Topical 3 μg dose % inhibition vs cx (area of sebaceous glands of the left ear) [3]: 47%

CCS(=O)(=O)c1ccc(OCCCN2C(=S)N(c3ccc(C#N)c(Cl)c3C)C(=O)C2(C)C)cc1 [EM-8261]
Shionogi Antiandrogenic Activity IC50 ([1]; Table 3, agonist reported when compound stimulates the cells): Partial agonist | % Inhibition Lev.Ani [2, 5]: 8% | % Inhibition SV [2, 5]: 25% | % Inhibition Prostate ([2]; Table 3, p.o): 38 p.o % | change in vivo at 0.2 mg ([4]; Table 3, p.o (marked in prostate cell), read-out: % Stimulation Lev.Ani): 82% | change in vivo at 0.2 mg ([4]; Table 3, p.o (marked in prostate cell), read-out: % Stimulation SV): 26% | change in vivo at 0.2 mg ([4]; Table 3, p.o, read-out: % Stimulation Prostate): 41% | Human Androgen Receptor Binding (%) RBA R1881 = 100 (Human Androgen Receptor; Table 3): 32%
